# Measurements from paper PMC11406516, “The Tuberculosis Drug Candidate SQ109 and Its Analogs Have Multistage Activity against Plasmodium falciparum” (ACS Infectious Diseases, 2024).
# Like-named read-outs stand apart in the source and are kept apart here. Marks after values point to notes of the source that are not given here.
# Assays:
# PfK1 = assay: SYBR Green I proliferation assay, asexual blood stages, multidrug-resistant K1; conditions: Plasmodium falciparum, K1, read-out: Pf ABS IC50 K1
# Description: (§1) P. falciparum asexual parasites were cultured from drug-sensitive NF54 (PfNF54) and multidrug resistant strains PfK1. Parasites were maintained in human erythrocytes (O+, suspended at 5% hematocrit) in RPMI-1640 culture medium (23.81 mM sodium bicarbonate, 0.024 mg/mL gentamycin, 25 mM HEPES pH 7.5, 0.2% D-glucose, 0.2 mM hypoxanthine and Albumax II) under hypoxic conditions (5% CO2, 5% O2 and 90% N2) with moderate shaking (60 rpm) at 37 °C. Cultures were synchronized to >95% in the ring stage with 5% (w/v) D-sorbitol treatment.[28]
# (§2) Activity against the asexual stage of P. falciparum was evaluated using the SYBR Green I-based fluorescence assay as previously described.[4],[16] Cellular proliferation was measured on synchronized in vitro PfNF54 ring-stage parasites (1% parasitemia, 2% hematocrit), following drug pressure for 96 h. Chloroquine was used as the positive drug control for complete inhibition of parasite proliferation.
# male gametes (PfNF54) = assay: Male gamete exflagellation inhibition assay (EIA); assay type: cell-based; conditions: Plasmodium falciparum, 48 h, read-out: male gamete inhibition %
# Description: The EIA was performed using video microscopy by capturing the movement of exflagellation centers over time as previously described.[4],[30] Mature PfNF54 stage V gametocytes (>95%;) were treated with 2 μM of drug for 48 h before the activation of exflagellation, without removing drug pressure. Movement was semi-automatically quantified from 15 videos of 8–10 s each between 15 and 22.5 min after incubation. Each video was analyzed using ICY-bio image analysis software.
# [1] = test system: PfNF54 LGc (stage IV/V gametocytes); assay: PrestoBlue late-stage gametocyte viability assay; assay type: cell-based, Plasmodium falciparum; conditions: for IC50: Plasmodium falciparum, read-out: PfNF54 LGc IC50
# Description: Gametocytogenesis was induced on highly synchronized (>95%) asexual ring-stage parasites from PfNF54 at 0.5% parasitemia and 6% hematocrit and thereafter maintained in glucose-deprived media as previously described.[29],[15] After 3 days, the hematocrit was decreased to 4%. Parasites were maintained in complete culture media supplemented with 50 mM N-acetyl-glucosamine 5–10 days post induction to inhibit proliferation of residual asexual blood stages. Gametocyte progression and morphology was also monitored microscopically using Giemsa-stained thin smears.
# activity against the sexual stages of P. falciparum was evaluated using the PrestoBlue fluorescence assay as previously described.[4] Activity was measured on PfNF54 stage IV/V gametocytes (2% gametocytemia, 5% hematocrit) previously seeded with compounds (in non-lethal DMSO) for 48 h drug pressure, after which PrestoBlue reagent was added and incubated for 2 h. Fluorescence was detected in the supernatant at 612 nm. Dihydroartemisinin (DHA) was used as a positive drug control.
# HepG2 cells [2] = assay: HepG2 cytotoxicity, LDH release assay; conditions: Homo sapiens, HepG2, 24 h, read-out: HepG2 EC50
# Description: (§3) Furthermore, compounds were evaluated against late (stage IV/V) gametocytes from PfNF54 (PfNF54 LGc), with viability detected with PrestoBlue,[15] and orthogonally evaluated for toxicity against a human hepatocellular carcinoma line, HepG2.[16]
# (§4) Human hepatocellular liver carcinoma cells (HepG2) were cultivated in vitro in Dulbecco’s Modified Eagle’s Medium (DMEM) supplemented with 10% (v/v) heat inactivated fetal bovine serum and 1% (v/v) penicillin/streptomycin.[14] Cells were detached with trypsin treatment at 80% confluency and were seeded in 96-well plates to adhere for 24 h under 5% CO2, humid (95%) conditions. Cells were subsequently exposed to drug pressure for 24 h and cytotoxicity was then determined using the lactate dehydrogenase (LDH) release assay through the colorimetric detection at 450 nm, as previously outlined.[4],[16]
# physchem = assay type: physicochemical; conditions: 37 °C, pH 6.5, aqueous buffer, thermodynamic from solid
# Description: The stock solutions (10^–2 M) of the assayed compounds were diluted to decreased molarity, from 300 to 0.1 μM, in 384 well transparent plate (Greiner 781801) with 1% DMSO:99% PBS buffer. Then, they were incubated at 37 °C and the light scattering was measured after 2 h in a NEPHELOstar Plus (BMG LABTECH). The results were adjusted to a segmented regression to obtain the maximum concentration in which compounds are soluble.
# The solubility of each product was evaluated using an HPLC Agilent 1100 with a DAD detector. The samples were injected in an Agilent Poroshell 120 EC-C18, 2.7 μm, 50 mm × 4.6 mm column at 40 °C and 0.6 mL/min flow. The mobile phase was a mixture of A = water with 0.05% formic acid and B = acetonitrile with 0.05% formic acid. The procedure followed was from 95% A–5% B to 100% B in 3 min, 100% B in 3 min, from 100% B to 95% A–5% B in 1 min, 95% A–5% B in 3 min; the injection volume was set at 75 μL. […] The samples remained at these conditions between 12–24 h. Then, the samples were filtered through a 0.45 μm PVDF filter and either directly analyzed or diluted before analyzing. The obtained area under the curve was compared with the one from the standard solution.
# PfNF54 ABS [3] = assay: SYBR Green I proliferation assay, asexual blood stages, drug-sensitive NF54; conditions: for IC50: Plasmodium falciparum, NF54, 96 h, read-out: Pf ABS IC50 NF54
# Description: as §1, §2
# female gametes = assay: Female gamete inhibition assay; assay type: cell-based, Plasmodium falciparum; set-up: concentration or dose not given beside the values
# Description: Similarly, female gametes were activated as described previously.[31] Monoclonal anti-Pfs antibody conjugated to FITC was used to detect female gametes. Image acquisition was performed using a Zeiss Axio Lab.A1 epifluorescence microscope with a 100/1.4 numerical aperture (NA) oil immersion. Thirty images were captured per sample and analyzed manually.
# PfNF54 ABS [4] = test system: PfNF54 ABS; set-up: method as in Stampolaki et al.[5]; conditions: drug-sensitive NF54; ref Stampolaki et al.[5]; read-out: Pf ABS IC50 NF54; cited from earlier work
# oocyst formation = assay: Standard membrane feeding assay (SMFA), oocyst formation in Anopheles coluzzii; assay type: in vivo; conditions: Plasmodium falciparum
# Description: Transmission-blocking activity was confirmed in the standard membrane feeding assay (SMFA), by determining transmission-reducing activity (TRA; reduction in oocyst counts) and transmission-blocking activity (TBA, reduction in oocyst prevalence), 8–10 days after feeding female mosquitoes on gametocyte-infected blood, treated with selected compounds (at 2 μM).
# SMFA was performed using glass feeders as is outlined.[4],[16] Once again, mature stage V gametocytes (>95%) were treated with 2 μM of each compound for 48 h prior to feeding. Anopheles coluzzii females were allowed to feed on gametocyte cultures (1.5–2.5% gametocytemia, 50% hematocrit in A+ male serum with fresh erythrocytes) in the dark for 40 min. All unfed or partially fed mosquitoes were removed, and remaining females housed for 8–10 days. Mosquitoes were dissected to remove midguts, and oocysts counted under bright field illumination at ×20–×40 magnification. The percentage of block in transmission (transmission-blocking activity; TBA) and the percentage of reduction in the number of oocysts (transmission-reducing activity; TRA) were calculated after normalizing to the control untreated sample.
# in vitro = in vitro ADME; conditions: microsomes
# Description: The microsomal stability assay used a single-point assay design (Di et al., 2004). Briefly, the compounds were incubated at 1 μM in human, rat, and mouse liver microsomes (0.4 mg/mL) for 30 min at 37 °C. Reactions were quenched by adding ice-cold acetonitrile containing internal standard (carbamazepine, 0.0236 μg/mL). The samples were then centrifuged, and the samples were analyzed by liquid chromatography with tandem mass spectrometry (LC-MS/MS) (Agilent Rapid Resolution HPLC, AB SCIEX 4500 MS) for the disappearance of the parent compound. Half-life, clearance and hepatic […] ratios were determined using standard equations.
# HepG2 cells [5] = test system: HepG2 cells; set-up: method as in Stampolaki et al.[5]; conditions: compound at 20 μM; ref Stampolaki et al.[5]; cited from earlier work
# [6] = HepG2 cytotoxicity, LDH release assay; conditions: human, HepG2 cells
# Description: as §3, §4
# HepG2 cells [7] = test system: HepG2 cells
# Description: as §3, §4
# [8] = stage IV/V gametocytes, 48 h drug pressure
# [9] = 48 h drug treatment at 2 μM, single biological repeat, read-out: oocyst formation (% inhibition) TBA
# [10] = 48 h drug treatment at 2 μM, single biological repeat, read-out: oocyst formation (% inhibition) TRA
SMILES,IC50 (PfK1),inhibition at 2 µM (male gametes (PfNF54); 2 μM),"IC50 [1, 8]",female gamete inhibition % (female gametes),IC50 (PfNF54 ABS [3]),"viability at 24 h, 20 µM [6]",further results
CCC1(NCCNC/C=C(\C)CCC=C(C)C)C2CC3CC(C2)CC1C3 (centres unmarked) [Compound 2],100 ± 20 nM,95.5 ± 4.55%,580 ± 40 nM,78.88 ± 4.46%,,,EC50 (HepG2 cells [2]): 5210 ± 1330 nM; solubility (physchem): 840 µM; fold improvement in ABS activity compared to 1 (PfNF54 ABS [3]; PfNF54 ABS): 10 fold; IC50 (PfNF54 ABS [4]): 160 ± 70 nM
CCCCC1(NCCNC/C=C(\C)CCC=C(C)C)C2CC3CC(C2)CC1C3 (centres unmarked) [Compound 3],130 ± 30 nM,81.4 ± 8.64%,300 ± 30 nM,67.05 ± 0.39%,,,EC50 (HepG2 cells [2]): 10200 ± 1700 nM; inhibition at 2 µM (oocyst formation; [9]): 36%; inhibition at 2 µM (oocyst formation; [10]): 11%; IC50 (PfNF54 ABS [4]): 270 ± 40 nM
CCCC1(NCCNC/C=C(\C)CCC=C(C)C)C2CC3CC(C2)CC1C3 (centres unmarked) [Compound 6],1330 ± 500 nM,34.6 ± 14.3%,370 ± 20 nM,64.59 ± 12.33%,500 ± 140 nM,,microsomal CLint at 1 µM (in vitro; human): 322 µL/min/mg; microsomal CLint at 1 µM (in vitro; mouse): 308 µL/min/mg; microsomal CLint at 1 µM (in vitro; rat): 400 µL/min/mg; solubility (physchem): 334 µM; inhibition at 2 µM (oocyst formation; [9]): 67%; inhibition at 2 µM (oocyst formation; [10]): 53%; HepG2 % viability (HepG2 cells [5]): 100^%c
CC(C)=CCC/C(C)=C/CNCCNC1(C)C2CC3CC(C2)CC1C3 (centres unmarked) [Compound 7],860 ± 270 nM,27.1 ± 14%,200 ± 20 nM,34.05 ± 9.23%,,,microsomal CLint at 1 µM (in vitro; human): 254 µL/min/mg; microsomal CLint at 1 µM (in vitro; mouse): 348 µL/min/mg; microsomal CLint at 1 µM (in vitro; rat): 373 µL/min/mg; solubility (physchem): 773 µM; HepG2 % viability (HepG2 cells [5]): 100%^c; IC50 (PfNF54 ABS [4]): 660 ± 160 nM
CC(C)=CCC/C(C)=C/CNCCNC(C)(C)C1C2CC3CC(C2)CC1C3 (centres unmarked) [Compound 8],1610 ± 550 nM,23.5 ± 9.72%,290 ± 10 nM,54.00 ± 2.54%,,,microsomal CLint at 1 µM (in vitro; human): 426 µL/min/mg; microsomal CLint at 1 µM (in vitro; mouse): 218 µL/min/mg; microsomal CLint at 1 µM (in vitro; rat): 467 µL/min/mg; solubility (physchem): 2340 µM; HepG2 % viability (HepG2 cells [5]): 100%^c; IC50 (PfNF54 ABS [4]): 770 ± 100 nM
CC(C)=CCC/C(C)=C/CNCCNC12CC3CC(CC(C3)C1)C2 [Compound 9],2320 ± 550 nM,96.7 ± 3.33%,700 ± 10 nM,90.50 ± 7.17%,990 ± 210 nM,,EC50 (HepG2 cells [2]): 12900 ± 1400 nM; inhibition at 2 µM (oocyst formation; [9]): 47%; inhibition at 2 µM (oocyst formation; [10]): 70%
CC(C)=CCC/C(C)=C/CNCCNC1CC2CCC1C2 (centres unmarked) [Compound 10],,,500 ± 70 nM,,1170 ± 200 nM,97%,solubility (physchem): 155 µM
CC(C)=CCC/C(C)=C/CNCCNC1CC2CCC1CC2 (centres unmarked) [Compound 11],,,220 ± 40 nM,,1660 ± 300 nM,100%,
CC(C)=CCC/C(C)=C/CNCCNCc1ccccc1 [Compound 12],,,410 ± 200 nM,,4320 ± 600 nM,94%,solubility (physchem): 160 µM
CC(C)=CCC/C(C)=C/CN(C)CCNC1C2CC3CC(C2)CC1C3 (centres unmarked) [Compound 14],,,> 10000 nM,,1090 ± 350 nM,100%,
CC(C)=CCC/C(C)=C/COCCNC1C2CC3CC(C2)CC1C3 (centres unmarked) [Compound 15],,,> 10000 nM,,2460 ± 140 nM,100%,
CC(C)=CCC/C(C)=C/CNCCOC1C2CC3CC(C2)CC1C3 (centres unmarked) [Compound 16],,,> 10000 nM,,3780 ± 750 nM,99%,
CC(C)=CCC/C(C)=C/CNCC(=O)NC1C2CC3CC(C2)CC1C3 (centres unmarked) [Compound 17],,,> 10000 nM,,,,HepG2 % viability (HepG2 cells [5]): 100%^b; IC50 (PfNF54 ABS [4]): 6490 ± 330 nM
CC(C)=CCC/C(C)=C/CNC(=O)CNC1C2CC3CC(C2)CC1C3 (centres unmarked) [Compound 18],,,,,,,IC50 ([1]; 48 h): > 10000 nM; HepG2 % viability (HepG2 cells [5]): 99%^b
CC(C)CCCC(C)CCCC(C)CCNCCNC1C2CC3CC(C2)CC1C3 (centres unmarked) [Compound 20],390 ± 10 nM,95 ± 5%,540 ± 40 nM,77.52 ± 10.85%,390 ± 150 nM,,EC50 (HepG2 cells [2]): 5110 ± 850 nM; cytotoxicity to HepG2 cells (in words) (HepG2 cells [7]): moderately cytotoxic; inhibition at 2 µM (oocyst formation; [9]): 54%; inhibition at 2 µM (oocyst formation; [10]): 75%
CC(C)=CCC/C(C)=C/CC/C(C)=C/CNCCNC1C2CC3CC(C2)CC1C3 (centres unmarked) [Compound 21],1820 ± 310 nM,,510 ± 70 nM,86.30 ± 2.58%,650 nM,75%,"inhibition at 2 µM (male gametes (PfNF54)): 95.5 ± 4.55%; inhibition at 2 µM (oocyst formation; 48 h, read-out: oocyst formation (% inhibition) TBA): 20%; inhibition at 2 µM (oocyst formation; 48 h, read-out: oocyst formation (% inhibition) TRA): 56%"
c1ccc(CCNCCNC2C3CC4CC(C3)CC2C4)cc1 (centres unmarked) [Compound 22],1700 ± 210 nM,92.1 ± 1.21%,740 ± 150 nM,85.40 ± 7.62%,730 ± 40 nM,100%,"fold loss in gametocyte activity ([1]; LGc, compared to 1): 7 fold; cytotoxicity to HepG2 cells (in words) (HepG2 cells [7]): moderately cytotoxic; inhibition at 2 µM (oocyst formation; [9]): 80%; inhibition at 2 µM (oocyst formation; [10]): 89%"
c1ccc(Oc2cccc(CNCCNC3C4CC5CC(C4)CC3C5)c2)cc1 (centres unmarked) [Compound 23],4140 ± 1370 nM,,1510 ± 420 nM,,960 ± 10 nM,,EC50 (HepG2 cells [2]): 20000 ± 5690 nM; cytotoxicity to HepG2 cells (in words) (HepG2 cells [7]): moderately cytotoxic
C1CCC(CCNCCNC2C3CC4CC(C3)CC2C4)CC1 (centres unmarked) [Compound 24],,,> 10000 nM,,1240 ± 80 nM,27%,
c1ccc(CNCCNC2C3CC4CC(C3)CC2C4)cc1 (centres unmarked) [Compound 25],,,110 ± 60 nM,,3990 ± 280 nM,91%,
CC(C)=CCNCCNC1C2CC3CC(C2)CC1C3 (centres unmarked) [Compound 26],,,370 ± 60 nM,,4280 ± 360 nM,99%,
